Results published in patent US20100092479A1, “Compositions and methods for treatment of viral diseases” (CombinatoRx (Singapore) Pte. Ltd., priority 2008, published 2010).
Counter-ions that a name gives are not always drawn. Like-named read-outs stand apart in the source and are kept apart here.

Tests used:
[1] = system: Huh7 cells expressing a subgenomic RNA replicon of Con1 (genotype 1b); assay: HCV replicon assay (luciferase, SteadyLite), Example 1; assay type: cell-based; conditions: single agent; for IC50: read-out: IC50 (concentration required to achieve 50% inhibition of viral replication); for Emax: read-out: Max Eff (maximum effect, inhibition of viral replication)
Procedure: The HCV replicon assay enables screening of compounds with antiviral activity against HCV viral RNA replication. Huh7 cells expressing a subgenomic RNA replicon of Con1 (genotype 1b) sequence origin and expressing the reporter enzyme luciferase were obtained from ReBLikon, GmBH. In order to perform the assay, replicon cells were seeded on a 384-well plate at 4,000 cells/well in a total volume of 30 μL well. The plated cells were incubated at 37° C., 5% CO2. Pre-diluted compounds at a 10× concentration were added to each well to achieve the desired final concentration. Plates were centrifuged at 900×g, 1 minute following the addition of compounds. Cells were incubated an additional 48 hours or 72 hours at 37° C., 5% CO2. Plates were removed from the incubator 30 minutes to 1 hour prior to the addition of 25 μL/well of SteadyLite luciferase assay reagent from Perkin Elmer in order to equilibrate plates to room temperature. Following the addition of SteadyLite reagent, cells were allowed to incubate for 10 minutes prior to collecting data with a luminometer. Antiviral activity was quantified by the inhibition of luciferase activity.
For screens involving a combination of compounds, a synergy score was calculated by the formula S=log fX log fYΣIdata(Idata−/ILoewe), summed over all non-single-agent concentration pairs, and where log fX,Y are the natural logarithm of the dilution factors used for each single agent. This effectively calculates a volume between the measured and Loewe additive response surfaces, weighted towards high inhibition and corrected for varying dilution factors. […] In general, the magnitude of the synergy score indicates the strength of the synergistic interaction.

Huh7 parental cell line = assay: Host proliferation counterscreen measuring cellular ATP levels (ATPLite); assay type: cell-based, human
Procedure: (§1) The human hepatoma cell line Huh-7^1 and Huh-luc/neo-ET cells (ReBLikon, GmbH) were maintained in Dulbecco's modified Eagle's medium (DMEM; Gibco Invitrogen) supplemented with 10% Fetal Bovine Serum (FBS, Gibco Invitrogen),1% Penicillin/Streptomycin (Gibco Invitrogen), 1% Gluta MAX-1 (Gibco Invitrogen) and 1% Non-Essential Amino Acids Solution (Gibco Invitrogen) at 37° C., 5% CO2. Huh-luc/neo-ET cells were grown in medium additionally supplemented with 250 ug/ml Geneticin (G418, Gibco Invitrogen). These cells stably express an HCV genotype 1b subgenomic replicon encoding firefly (Photinus pyralis) luciferase, the coding sequence for ubiquitin and neomycin phosphotransferase downstream of the HCV IRES and upstream of an EMCV IRES which mediates translation of downstream viral nonstructural proteins NS3 to NS5B^2. For all experimental procedures Huh-luc/neo-ET and Huh-7 parental cells were seeded in DMEM without phenol red in the absence of G418 and Penicillin/Streptomycin (screening medium).
(§2) Cells were seeded in 30 μl of screening medium at 4000 cells/well on white (Huh-luc/neo-ET cells for viral inhibition assay) or black (Huh7 cells for proliferation inhibition assay) 384-well assay plates (Matrix) and incubated overnight for approximately 20 hours. Using a MiniTrak™ Robotic Liquid Handling System (Perkin-Elmer) 1 μl of compound stock solutions (1000× concentration in DMSO unless otherwise mentioned) in an X (2-fold dilutions of compound horizontally arrayed) or Y (2-fold dilutions of compound vertically arrayed) format was transferred from master plates into 384-well clear bottom plates containing 100 μl screening medium (dilution plates) and mixed thoroughly. From each X and Y dilution plate, 3.3 μl was subsequently transferred to the 384-well assay plates for a final compound dilution of 1:1000 generating a 9×9 (81-point) dose response matrix. The cells were then incubated for 48 hours prior to measuring luciferase activity (viral inhibition) or ATP depletion (proliferation inhibition). 25 μl of SteadyLite (Perkin-Elmer) was added to the white 384-well assay plates and 15 μl of ATPLite (Perkin-Elmer) was added to the black 384-well plates which were subsequently incubated at least 5 minutes before measuring the luminescent signal. All luminescence measurements were assayed for 0.1 sec per well with an EnVision™ Xcite multilabel automatic plate reader with Enhanced Luminescence (Perkin-Elmer) and expressed as the number of relative light units (RLU) detected. Compounds were assayed in duplicate 9×9 dose matrices on each plate and DMSO-only control wells were included as negative untreated controls.
(§3) The resulting impact on viral replication, as measured by replicon luciferase activity, is shown as dose response curves in FIG. 1a. A host proliferation counterscreen measuring cellular ATP levels was assessed in parallel using the Huh7 parental cell line and the data were used to evaluate the selectivity of each probe. All of the compounds tested produced either increases (proviral) or decreases (antiviral) in replicon replication.

[2] = system: HCV genotype 1b subgenomic replicon; assay: cHTS luciferase assay (viral inhibition) in Huh-luc/neo-ET cells, Experiment 2; assay type: cell-based; conditions: single agent; for IC50: Hepatitis C virus, Huh-luc/neo-ET, replicon luciferase activity, 48 hours, read-out: IC50, HCV replication
Procedure: as §1, §2
Dose matrices were assembled from replicate combination blocks on experimental 384-well pates. Raw phenotype measurements T from each treated well were converted to normalized measures of inhibitory activity a=−log10(TN) or fractional inhibition I=1−T/V relative to the median V of 20 vehicle-treated wells arranged around the plate. After normalization, we calculated average activity values between replicate measurements at the same treatment doses, along with σ1σ1, the accompanying standard error estimates. Single agent responses were tested at eleven serially-diluted doses and combination data as 9×9 dose matrices each testing all pairs of 8 serially-diluted single agent concentrations along with their single agent doses as a control.
as §3

HMGCR = HMGCR protein expression by western analysis in Huh7 cells; assay type: cell-based, human; conditions: Huh7 cells treated 16 hrs, GAPDH control
Procedure: For protein expression analysis, Huh-luc/neo-ET cells were seeded in 4 ml of medium at 250,000 cells per well on 6-well plates and allowed to adhere for 6-8 hours. Stock solutions of compound were added at a 1:1000 dilution and cells were incubated in the presence of compound over 96 hours. Medium and compounds were refreshed once after an initial incubation of 48 hours. Cells were washed in phosphate-buffered saline (PBS, Invitrogen-Gibco) and lysed by the addition of 1× RIPA lysis buffer (0.5 M Tris-HCl, pH 7.4/1.5 M NaCl/2.5% deoxycholic acid/10% NP-40/10 mM EDTA, purchased from Upstate) containing Complete, Mini Protease inhibitor cocktail and PhosSTOP phosphatase inhibitor cocktail tablets (Roche) according to the manufacturer's recommendations. Cell lysates were rocked for 30 minutes at 4° C. and centrifuged at 10,000×g for 10 minutes at 4° C. The protein concentration of each extract was determined by BCA protein assay (Pierce) according to the manufacturer's protocol. […]
To determine the effects of our chemical inhibitors on HMGCR expression, we treated Huh7 cells with the listed concentrations of each chemical for 16 hrs (FIG. 4b). Cell lysates were extracted according to the methods and HMGCR protein expression was analyzed by SDS-PAGE separation and western staining with antibodies specific for HMGCR and GAPDH.

HCV RNA = HCV RNA copy number by RT-qPCR in Huh-luc/neo-ET cells; assay type: cell-based; conditions: 72 hr treatment
Procedure: Measurement of HCV RNA levels in response to drug were carried out by first seeding Huh-luc/neo-ET cells in 100 μl of medium at 7,500 cells per well for 72 hour drug treatments and allowed to adhere overnight for approximately 20 hours. Compounds were added at a 1:1000 dilution in duplicate and added to cells in 3 separate experiments. Total RNA was harvested using an RNeasy 96-well kit (Qiagen) according to the manufacturer's protocol and quantified using the Quant-iT™ RiboGreen® RNA Reagent (Invitrogen). Purified RNA (4 μl) was added to TaqMan reactions containing 10 μl of QuantiTect Probe RT-PCR Master Mix (Qiagen) and 0.2 μL, of QuantiTect RT Mix. […] All 20 μl reactions were assayed in an Eppy Twin-Tec skirted PCR plate (Eppendorf) and subjected to quantitative one-step RT-PCR with an Eppendorf Realplex4 qPCR machine (Eppendorf) using the following program: 50° C. for 30 min, 95° C. for 15 min, and 40 cycles of 95° C. for 15 s followed by 60° C. for 1 min 15 s. Absolute quantification of HCV RNA copy number was determined by comparing PCR signals to a standard curve generated from dilutions of a 160 by PCR-amplified fragment of the 5′NTR of HCV. […] All qPCR samples quantified by comparison to the standard curve were subsequently normalized to total RNA per sample to account for variations in sample purification and preparation steps. […]

[3] = single agent, Huh7 parental cells

Row | Compound | IC50 ([1]; Hepatitis C virus, Huh-7) [nM] | Emax ([1]; Hepatitis C virus, Huh-7) [%] | further results
1 | Clc1ccccc1CNC[C@H]1CC[C@H](CNCc2ccccc2Cl)CC1 [AY-9944] | 2520 | 85 | 
2 | CCC(C)(C)c1ccc(CC(C)CN2C[C@@H](C)O[C@@H](C)C2)cc1 (stereo partly drawn) [Amorolfine hydrochloride, Amorolfine] | 7660 | 62 | 
3 | O=C(c1ccc(Cl)cc1)N1CCC(=Cc2ccc(C3=NCCO3)cc2)CC1 [BIBB-515] |  | 46 | 
4 | CCN(CC)CCOc1ccc(/C(=C(\Cl)c2ccccc2)c2ccccc2)cc1 [Clomiphene citrate, Clomiphene] |  | 86 | 
5 | CC(C)CCCC(C)[C@H]1CC(=O)C2=C3CC[C@H]4C[C@@H](O)CC[C@]4(C)C3CC[C@@]21C (stereo partly drawn) [Colestolone] | 1620 | 79 | impact on host cell ATP levels (Huh7 parental cell line; [3]): marginal impact; HCV replication (replicon luciferase activity), result in words [2]: inhibited HCV replication
6 | CC(C)n1c(/C=C/C(O)CC(O)CC(=O)O)c(-c2ccc(F)cc2)c2ccccc21 (stereo not drawn) [Fluvastatin] | 15800 | 65 | 
7 | COC(=O)[C@H](CC(C)C)NC(=O)c1ccc(NC[C@@H](N)CS)cc1-c1ccccc1 [GGTI-286] | 3700 | 79 | 
8 | O=C([O-])C[C@H](O)C[C@H](O)/C=C/c1c(C2CC2)nc2ccccc2c1-c1ccc(F)cc1.O=C([O-])C[C@H](O)C[C@H](O)/C=C/c1c(C2CC2)nc2ccccc2c1-c1ccc(F)cc1.[Ca+2] [Itavastatin, calcium salt, Itavastatin] |  |  | Max Eff (maximum effect, inhibition of viral replication) [1]: 92; IC50 [1]: 2300 nM
9 | CC[C@H](C)C(=O)O[C@H]1C[C@@H](C)C=C2C=C[C@H](C)[C@H](CC[C@@H]3C[C@@H](O)CC(=O)O3)[C@H]21 [Lovastatin] | 1640 | 102 | 
10 | CC[C@H](C)C(=O)O[C@H]1CCC=C2C=C[C@H](C)[C@H](CC[C@@H]3C[C@@H](O)CC(=O)O3)[C@H]21 [Mevastatin] | 600 | 101 | 
11 | CCCCCCC(=O)CCCCCC/C=C/C[C@@H](O)[C@H](O)[C@@](N)(CO)C(=O)O [Myriocin] |  | 33 | 
12 | C=CCN(C)CCCCCCOc1ccc(C(=O)c2ccc(Br)cc2)c(F)c1 [Ro 48-8071] | 60 | 66 | impact on host cell ATP levels (Huh7 parental cell line; [3]): marginal impact; HMGCR protein expression (HMGCR): apparent overexpression; IC50 [2]: 68.3 nM; HCV replication (replicon luciferase activity), result in words [2]: inhibited HCV replication
13 | CCOP(=O)(OCC)C(=Cc1cc(C(C)(C)C)c(O)c(C(C)(C)C)c1)P(=O)(OCC)OCC [SR 12813] |  |  | Max Eff (maximum effect, inhibition of viral replication) [1]: 47
14 | CCC(C)(C)C(=O)O[C@H]1C[C@@H](C)C=C2C=C[C@H](C)[C@H](CC[C@@H]3C[C@@H](O)CC(=O)O3)[C@H]21 [Simvastatin] | 14000 | 71 | 
15 | C=C(CC[C@]12O[C@H](C(=O)O)[C@@](O)(C(=O)O)[C@](C(=O)O)(O1)[C@H](OC(=O)/C=C/[C@@H](C)C[C@@H](C)CC)[C@H]2O)[C@@H](OC(C)=O)[C@H](C)Cc1ccccc1 [Squalestatin] |  |  | effect on HCV RNA replication (viral RNA copy number normalized to total RNA) (HCV RNA): proviral effects
16 | CCCCCCCCCCCCCCOc1ccc(C(=O)O)o1 [TOFA, 5-(tetradecyloxy)-2-furancarboxylic acid] | 6250 | 95 | 
17 | CCN(CC)CCOc1ccc(C(O)(Cc2ccc(Cl)cc2)c2ccc(C)cc2)cc1 (stereo not drawn) [Triparanol] | 1550 | 87 | 
18 | CCN(CC)CCO[C@H]1CC[C@@]2(C)C(=CC[C@@H]3[C@@H]2CC[C@]2(C)C(=O)CC[C@@H]32)C1 [U18666A] |  |  | impact on host cell ATP levels (Huh7 parental cell line; [3]): marginal impact; HMGCR protein expression (HMGCR): apparent overexpression; IC50 [2]: 19.4 nM; HCV replication (replicon luciferase activity), result in words [2]: inhibited HCV replication
19 | CCC(C)(C)c1ccc(CC(C)CN2C[C@@H](C)O[C@@H](C)C2)cc1 (stereo partly drawn) [amorolfine, Amorolfine] |  |  | impact on host cell ATP levels (Huh7 parental cell line; [3]): marginal impact; HCV replication (replicon luciferase activity), result in words [2]: inhibited HCV replication
20 | C[C@@H](Cc1ccc(C(C)(C)C)cc1)CN1C[C@@H](C)O[C@@H](C)C1 [fenpropimorph, Fenpropimorph] |  |  | impact on host cell ATP levels (Huh7 parental cell line): marginal impact; HCV replication (replicon luciferase activity), result in words [2]: inhibited HCV replication
21 | Terconazole |  |  | Max Eff (maximum effect, inhibition of viral replication) [1]: 95; IC50 [1]: 1660 nM
